From article PMC7316994, “In Vitro Pharmacological Profile of a New Small Molecule Bradykinin B2 Receptor Antagonist” (Frontiers in Pharmacology, 2020)
Like-named read-outs stand apart in the source and are kept apart here.

How the values were obtained:
[1] = target: T1, Opioid δ (DOP) (Homo sapiens, UniProt P41143); assay: radioligand binding (Table S2); settings: [3H] DADLE, Human recombinant CHO cells
T1 construct: host or cells: CHO cells

[2] = target: T2, endogenous human B2 receptor (Homo sapiens, UniProt P30411); assay: human isolated umbilical vein contractility assay, BK-induced contraction
T2 construct: BK-induced contraction at endogenous human B2 receptor in the umbilical vein model; from tissue; host or cells: human umbilical vein rings (donor cords after elective caesarean section)
T2 sequence (P30411 1-391): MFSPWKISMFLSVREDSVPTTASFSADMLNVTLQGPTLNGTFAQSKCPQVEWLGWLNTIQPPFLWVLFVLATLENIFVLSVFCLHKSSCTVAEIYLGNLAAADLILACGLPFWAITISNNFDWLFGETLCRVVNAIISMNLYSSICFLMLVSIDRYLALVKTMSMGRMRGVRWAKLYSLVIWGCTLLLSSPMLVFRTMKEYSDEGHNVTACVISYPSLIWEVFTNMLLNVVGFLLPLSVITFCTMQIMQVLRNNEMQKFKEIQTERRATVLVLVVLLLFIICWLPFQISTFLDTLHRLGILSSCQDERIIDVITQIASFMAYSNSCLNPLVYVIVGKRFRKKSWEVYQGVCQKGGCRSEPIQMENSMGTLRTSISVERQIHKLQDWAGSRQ

[3] = target: T3, myc-tagged human B2 receptor (Homo sapiens, UniProt P30411); assay: antibody internalization assay, HEK 293a cells; format: cell-based; settings: BK 100 nM; antagonist 1 nM to 1 μM, 15 min before BK
T3 construct: expressed in transfected cells
Protocol: B2 receptor-mediated transport of immune complexes constructed at the cell surface was previously reported ([Bawolak et al., 2011]). Intact HEK 293a cells stably expressing the N-terminally myc-tagged B2 receptor construction (human sequence, [Charest-Morin et al., 2015]) were treated with the monoclonal anti-myc antibody (clone 4A6) conjugated with AlexaFluor-488 (Millipore, dilution 1:500) added to the culture medium. Cells were further incubated at 37°C. Without rinsing, a selected antagonist or their DMSO vehicle was added 5 min later, and BK (100 nM) or its saline vehicle 15 min later. After an additional 30 min incubation period at 37°C, cells were rinsed 3 times with Hank's balanced salt solution (Multicell Wisent, St. Bruno, Canada) and photographed in transmission and epifluorescence using an Olympus BX51 microscope coupled to a CoolSnap HQ digital camera (filters for AlexaFluor 488: excitation 460–500 nm, emission 510–560 nm).

[4] = target: T4, cynomolgus monkey B2 receptor (Macaca fascicularis, UniProt A0A7N9CWN6); assay: cell-based
T4 sequence (A0A7N9CWN6 1-391): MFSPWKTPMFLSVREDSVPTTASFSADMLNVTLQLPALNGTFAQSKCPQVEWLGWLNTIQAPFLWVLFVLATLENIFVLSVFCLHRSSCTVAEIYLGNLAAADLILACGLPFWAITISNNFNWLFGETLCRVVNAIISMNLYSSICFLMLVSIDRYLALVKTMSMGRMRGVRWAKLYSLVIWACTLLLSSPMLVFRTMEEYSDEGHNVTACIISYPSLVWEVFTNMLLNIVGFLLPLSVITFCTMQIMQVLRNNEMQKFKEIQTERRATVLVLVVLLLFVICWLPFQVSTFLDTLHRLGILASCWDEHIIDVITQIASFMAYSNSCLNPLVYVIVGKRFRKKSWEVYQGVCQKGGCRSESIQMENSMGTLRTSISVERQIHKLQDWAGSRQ

[5] = target: T5, Adenosine A2A (Homo sapiens, UniProt P29274); assay: radioligand binding (Table S2); settings: [3H] CGS 21680, Human recombinant HEK-293 cells
T5 construct: host or cells: HEK-293 cells

[6] = target: T6, Serotonin 5-HT transporter (Homo sapiens, UniProt P31645); assay: radioligand binding (Table S2); settings: [3H] Imipramine, Human recombinant CHO cells
T6 construct: host or cells: CHO cells

[7] = target: T7, Nicotinic N neuronal α4β2 (Homo sapiens, UniProt P17787+P43681); assay: radioligand binding (Table S2); settings: [3H] Cytisine, Human recombinant SH-SY5Y cells
T7 construct: host or cells: SH-SY5Y cells

[8] = target: T8, Vasopressin V2 (Homo sapiens, UniProt P30518); assay: functional assay, cAMP HTRF, CHO cells (Table S2); format: cell-based; settings: read-out: % inhibition of reference agonist response @ 10 µM (antagonist effect), AVP (0.03 nM)
T8 construct: expressed in transfected cells; host or cells: CHO cells

[9] = target: T9, Melanocortin MC3 (Homo sapiens, UniProt P41968); assay: radioligand binding (Table S2); settings: [125I] NDP-α-MSH, Human recombinant CHO cells
T9 construct: host or cells: CHO cells

[10] = target: Adrenergic β1 (Homo sapiens, UniProt P08588); assay: radioligand binding (Table S2); settings: read-out: % Inhibition @ 10 µM
[11] = target: Muscarinic M2 (Homo sapiens, UniProt P08172); assay: radioligand binding (Table S2); settings: read-out: % Inhibition @ 10 µM
[12] = target: T10, TP (TXA2/PGH2) (Homo sapiens, UniProt P21731); assay: functional assay, intracellular [Ca2+], HEK-293 cells (Table S2); format: cell-based; settings: for inhibition at 10 µM: HEK293, read-out: % inhibition of reference agonist response @ 10 µM (antagonist effect), 10 µM, U 44069 (10 nM)
T10 construct: expressed in transfected cells; host or cells: HEK-293 cells
T10 sequence (P21731 1-343): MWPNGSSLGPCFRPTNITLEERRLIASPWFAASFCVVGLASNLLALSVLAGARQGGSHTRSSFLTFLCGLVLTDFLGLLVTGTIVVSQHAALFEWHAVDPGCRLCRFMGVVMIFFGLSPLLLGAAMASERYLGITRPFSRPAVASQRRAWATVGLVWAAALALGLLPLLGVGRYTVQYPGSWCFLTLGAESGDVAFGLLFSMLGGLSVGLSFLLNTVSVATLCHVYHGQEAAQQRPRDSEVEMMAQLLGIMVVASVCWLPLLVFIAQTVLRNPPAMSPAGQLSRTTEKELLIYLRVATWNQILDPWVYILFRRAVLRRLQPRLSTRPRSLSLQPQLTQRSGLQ

[13] = target: Somatostatin sst2 (Homo sapiens, UniProt P30874); assay: radioligand binding (Table S2); settings: [125I] Tyr11-Somatostatin 14, Human recombinant CHO-K1 cells
[14] = target: T11, Dopamine D4.2 (Homo sapiens, UniProt P21917, DEL265-296); assay: radioligand binding (Table S2); settings: [3H] Spiperone, Human recombinant CHO-K1 cells
T11 construct: host or cells: CHO-K1 cells
T11 sequence (P21917 with tags, fused parts or gaps DEL265-296): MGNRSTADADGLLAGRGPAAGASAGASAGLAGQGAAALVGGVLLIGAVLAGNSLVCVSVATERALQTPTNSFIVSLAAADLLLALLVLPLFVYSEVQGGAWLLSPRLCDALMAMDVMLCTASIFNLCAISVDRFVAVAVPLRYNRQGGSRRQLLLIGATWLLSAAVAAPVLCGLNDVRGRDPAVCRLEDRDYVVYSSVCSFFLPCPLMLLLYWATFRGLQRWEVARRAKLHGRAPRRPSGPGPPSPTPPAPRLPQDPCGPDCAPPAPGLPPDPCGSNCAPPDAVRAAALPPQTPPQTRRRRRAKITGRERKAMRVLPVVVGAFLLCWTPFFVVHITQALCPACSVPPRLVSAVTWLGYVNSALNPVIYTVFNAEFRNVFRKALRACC

T9 sequence (P41968 whole entry): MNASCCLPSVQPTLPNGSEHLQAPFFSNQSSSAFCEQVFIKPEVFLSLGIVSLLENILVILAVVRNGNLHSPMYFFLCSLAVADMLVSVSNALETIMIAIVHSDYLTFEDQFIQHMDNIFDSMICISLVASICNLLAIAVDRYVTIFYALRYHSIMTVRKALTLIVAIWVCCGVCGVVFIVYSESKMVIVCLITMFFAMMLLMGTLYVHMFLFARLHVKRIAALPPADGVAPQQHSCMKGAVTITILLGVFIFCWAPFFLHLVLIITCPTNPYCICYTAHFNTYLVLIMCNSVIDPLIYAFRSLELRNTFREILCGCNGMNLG
T1 sequence (P41143 whole entry): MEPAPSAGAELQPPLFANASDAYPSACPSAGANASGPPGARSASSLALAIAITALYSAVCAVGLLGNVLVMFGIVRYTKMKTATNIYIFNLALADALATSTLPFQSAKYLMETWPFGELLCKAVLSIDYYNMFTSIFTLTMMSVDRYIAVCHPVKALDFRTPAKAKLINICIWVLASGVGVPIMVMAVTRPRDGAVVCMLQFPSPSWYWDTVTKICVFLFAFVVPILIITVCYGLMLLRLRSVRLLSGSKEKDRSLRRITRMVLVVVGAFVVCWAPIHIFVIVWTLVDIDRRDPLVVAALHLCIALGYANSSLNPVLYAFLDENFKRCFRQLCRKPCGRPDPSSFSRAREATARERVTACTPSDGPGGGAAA
Adrenergic β1, sequence (P08588 whole entry): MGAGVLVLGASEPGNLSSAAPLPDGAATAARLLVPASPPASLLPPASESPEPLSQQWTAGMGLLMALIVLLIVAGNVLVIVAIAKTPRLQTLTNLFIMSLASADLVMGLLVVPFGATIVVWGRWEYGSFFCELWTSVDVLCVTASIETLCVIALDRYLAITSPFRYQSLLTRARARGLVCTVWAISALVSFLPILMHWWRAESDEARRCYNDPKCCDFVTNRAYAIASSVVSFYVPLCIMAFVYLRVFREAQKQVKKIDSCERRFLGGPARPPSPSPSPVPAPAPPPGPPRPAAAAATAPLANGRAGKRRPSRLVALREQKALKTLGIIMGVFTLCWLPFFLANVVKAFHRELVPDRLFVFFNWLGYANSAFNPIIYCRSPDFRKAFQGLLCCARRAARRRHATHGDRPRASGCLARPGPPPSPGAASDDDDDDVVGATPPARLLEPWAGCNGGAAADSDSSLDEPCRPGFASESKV
T8 sequence (P30518 whole entry): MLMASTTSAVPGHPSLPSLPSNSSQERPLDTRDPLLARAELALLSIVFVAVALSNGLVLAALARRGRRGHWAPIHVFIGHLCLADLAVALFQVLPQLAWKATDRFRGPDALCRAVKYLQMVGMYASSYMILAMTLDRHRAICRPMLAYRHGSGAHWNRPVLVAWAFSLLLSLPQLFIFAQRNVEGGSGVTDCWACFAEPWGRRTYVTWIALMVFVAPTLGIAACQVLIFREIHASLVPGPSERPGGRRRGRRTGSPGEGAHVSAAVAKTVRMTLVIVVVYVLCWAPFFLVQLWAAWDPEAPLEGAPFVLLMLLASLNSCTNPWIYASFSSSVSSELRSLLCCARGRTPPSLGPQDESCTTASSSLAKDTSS
T7 sequence (P43681 29-627 limits assumed): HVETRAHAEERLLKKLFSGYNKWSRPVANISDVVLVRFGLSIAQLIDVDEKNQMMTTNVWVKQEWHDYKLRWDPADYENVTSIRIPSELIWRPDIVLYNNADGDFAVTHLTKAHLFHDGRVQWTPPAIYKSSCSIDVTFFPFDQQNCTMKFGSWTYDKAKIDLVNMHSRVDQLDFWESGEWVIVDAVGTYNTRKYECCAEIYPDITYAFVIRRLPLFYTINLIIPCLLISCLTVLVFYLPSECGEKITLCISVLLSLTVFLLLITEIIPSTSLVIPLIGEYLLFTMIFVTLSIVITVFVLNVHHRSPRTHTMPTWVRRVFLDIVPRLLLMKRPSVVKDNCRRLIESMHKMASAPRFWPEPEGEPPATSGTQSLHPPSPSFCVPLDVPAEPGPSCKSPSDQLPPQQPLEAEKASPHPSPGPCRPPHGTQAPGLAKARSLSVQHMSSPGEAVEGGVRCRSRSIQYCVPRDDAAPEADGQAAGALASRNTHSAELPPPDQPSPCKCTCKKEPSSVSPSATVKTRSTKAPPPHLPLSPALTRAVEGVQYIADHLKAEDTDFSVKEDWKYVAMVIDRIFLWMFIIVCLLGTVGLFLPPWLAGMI
T7 sequence (P17787 26-502): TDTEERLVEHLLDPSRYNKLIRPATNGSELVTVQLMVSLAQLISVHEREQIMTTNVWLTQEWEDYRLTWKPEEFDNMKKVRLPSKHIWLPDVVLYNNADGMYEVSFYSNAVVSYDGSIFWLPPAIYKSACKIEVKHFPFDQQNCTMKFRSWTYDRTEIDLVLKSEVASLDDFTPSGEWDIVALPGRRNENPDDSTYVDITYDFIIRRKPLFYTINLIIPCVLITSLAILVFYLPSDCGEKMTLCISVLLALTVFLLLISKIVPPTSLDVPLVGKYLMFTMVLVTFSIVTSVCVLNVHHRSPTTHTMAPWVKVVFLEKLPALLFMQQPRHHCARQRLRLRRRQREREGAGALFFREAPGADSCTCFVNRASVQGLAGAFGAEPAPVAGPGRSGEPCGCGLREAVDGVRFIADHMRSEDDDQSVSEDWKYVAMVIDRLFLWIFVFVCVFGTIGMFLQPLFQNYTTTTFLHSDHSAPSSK
T5 sequence (P29274 whole entry): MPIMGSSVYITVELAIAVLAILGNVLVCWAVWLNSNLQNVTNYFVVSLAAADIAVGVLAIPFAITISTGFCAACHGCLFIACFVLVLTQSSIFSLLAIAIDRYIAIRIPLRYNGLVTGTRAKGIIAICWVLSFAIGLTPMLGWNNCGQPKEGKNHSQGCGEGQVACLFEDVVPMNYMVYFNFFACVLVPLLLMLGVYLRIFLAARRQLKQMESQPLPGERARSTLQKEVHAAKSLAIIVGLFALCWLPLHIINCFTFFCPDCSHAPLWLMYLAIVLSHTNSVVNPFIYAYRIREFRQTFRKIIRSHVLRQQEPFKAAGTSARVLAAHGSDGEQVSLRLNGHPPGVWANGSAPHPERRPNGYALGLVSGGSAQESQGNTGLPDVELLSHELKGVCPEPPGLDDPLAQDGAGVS
T6 sequence (P31645 whole entry): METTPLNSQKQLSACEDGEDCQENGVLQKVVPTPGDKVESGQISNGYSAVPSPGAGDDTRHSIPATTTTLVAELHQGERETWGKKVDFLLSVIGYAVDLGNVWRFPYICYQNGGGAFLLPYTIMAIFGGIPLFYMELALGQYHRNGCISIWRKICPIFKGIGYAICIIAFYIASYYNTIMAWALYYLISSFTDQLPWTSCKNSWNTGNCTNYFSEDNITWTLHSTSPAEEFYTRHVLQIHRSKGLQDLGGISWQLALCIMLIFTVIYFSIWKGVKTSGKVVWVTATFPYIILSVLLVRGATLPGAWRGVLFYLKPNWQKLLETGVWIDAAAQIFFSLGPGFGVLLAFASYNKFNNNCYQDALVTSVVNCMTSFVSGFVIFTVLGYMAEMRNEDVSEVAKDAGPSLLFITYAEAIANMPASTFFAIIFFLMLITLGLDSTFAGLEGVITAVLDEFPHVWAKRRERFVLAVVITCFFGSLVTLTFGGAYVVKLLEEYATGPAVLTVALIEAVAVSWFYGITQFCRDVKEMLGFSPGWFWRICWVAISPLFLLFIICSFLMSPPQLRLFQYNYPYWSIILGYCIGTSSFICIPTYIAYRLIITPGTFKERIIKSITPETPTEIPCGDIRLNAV
Somatostatin sst2, sequence (P30874 whole entry): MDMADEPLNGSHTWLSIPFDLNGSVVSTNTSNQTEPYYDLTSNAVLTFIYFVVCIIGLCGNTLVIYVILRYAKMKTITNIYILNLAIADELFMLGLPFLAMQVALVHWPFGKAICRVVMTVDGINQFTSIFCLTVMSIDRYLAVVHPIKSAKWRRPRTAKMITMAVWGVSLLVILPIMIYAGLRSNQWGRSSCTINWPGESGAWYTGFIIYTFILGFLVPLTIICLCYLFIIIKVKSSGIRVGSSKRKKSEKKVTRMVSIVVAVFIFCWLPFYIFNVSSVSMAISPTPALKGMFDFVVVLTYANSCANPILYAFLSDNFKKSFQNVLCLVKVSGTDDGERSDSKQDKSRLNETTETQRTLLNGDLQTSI
Muscarinic M2, sequence (P08172 whole entry): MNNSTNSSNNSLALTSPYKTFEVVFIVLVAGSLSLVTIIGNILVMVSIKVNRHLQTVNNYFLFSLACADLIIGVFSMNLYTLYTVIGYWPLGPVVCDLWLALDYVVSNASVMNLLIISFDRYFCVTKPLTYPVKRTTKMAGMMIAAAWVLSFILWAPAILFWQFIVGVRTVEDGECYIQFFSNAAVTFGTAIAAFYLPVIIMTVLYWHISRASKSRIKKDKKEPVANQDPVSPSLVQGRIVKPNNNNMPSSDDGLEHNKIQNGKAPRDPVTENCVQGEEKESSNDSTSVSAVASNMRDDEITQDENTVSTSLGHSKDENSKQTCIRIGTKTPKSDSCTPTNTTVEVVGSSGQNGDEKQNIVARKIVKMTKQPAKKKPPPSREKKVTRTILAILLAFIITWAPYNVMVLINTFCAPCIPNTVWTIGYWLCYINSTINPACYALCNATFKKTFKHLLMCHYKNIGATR

Cc1cc(-c2ncnn2C)c2cccc(OCc3c(Cl)cc(F)cc3[C@H](C)NC(=O)COC(F)F)c2n1 [Compound 3, (S)-N-(1-(3-chloro-5-fluoro-2-((2-methyl-4-(1-methyl-1H-1,2,4-triazol-5-yl)quinolin-8-yloxy)methyl)phenyl)ethyl)-2-(difluoromethoxy)acetamide]
inhibition at 10 µM [1]: 10.6% | Kb [2]: 0.214 nM | type of antagonism of BK ([2]; BK concentration-effect curves, Emax): competitive | pA2 ([2]; Schild plot, Pharm/PCS, ± S.E.M. where given): 9.67 ± 0.42 | Schild plot slope ([2]; Schild regression, Pharm/PCS, ± S.E.M. where given): −0.76 | Maximal BK-induced response in absolute force units ± S.E.M. ([2]; antagonist 1 nM, vehicle for Compound 3 1.52 ± 0.20): 1.75 ± 0.32 grams-weight | Maximal BK-induced response in absolute force units ± S.E.M. ([2]; antagonist 10 nM, vehicle: Icatibant 1.90, Compound 1 […], Compound 2 2.25, Compound 3 1.52): 2.29 ± 0.24 grams-weight | Maximal BK-induced response in absolute force units ± S.E.M. ([2]; antagonist 100 nM, vehicle: Icatibant 1.90, Compound 1 […], Compound 2 2.25, Compound 3 1.52): 2.42 ± 0.36 grams-weight | Maximal BK-induced response in absolute force units ± S.E.M. ([2]; antagonist 1 μM, vehicle: Icatibant 1.90, Compound 1 […], Compound 2 2.25, Compound 3 1.52): 1.25 ± 0.14 grams-weight | pA2 value converted into nM ([2]; potency from pA2): 0.21 nM | concentration with clear efficacy in inhibiting BK-induced endocytosis [3]: ≥ 100 nM | IC50 [4]: 6.25 nM | Kb [4]: 1.36 nM | inhibition at 10 µM [5]: 9.8% | inhibition at 10 µM [6]: -23.4% | inhibition at 10 µM [7]: -33.6% | inhibition at 10 µM [8]: -15.1% | inhibition at 10 µM [9]: -8.2% | inhibition at 10 µM [10]: 0.3% | inhibition at 10 µM [11]: -12.4% | IC50 [12]: 3600 nM | Kb [12]: 510 nM | % of reference agonist response @ 10 µM (agonist effect) ([12]; 10 µM, reference U 44069 (0.3 µM)): -2.8% | inhibition at 10 µM ([12]; first entry of Table S2, single concentration): 62.3% | inhibition at 10 µM ([12]; second entry of Table S2, with IC50 and KB): 55.1% | inhibition at 10 µM [13]: -7% | inhibition at 10 µM [14]: 2%
